In BindingDB's records for doi:10.1016/j.bmcl.2007.04.105 (Abbott Laboratories, 2007):
pIC50: −log10 of the molar value.

Target: Transient receptor potential cation channel subfamily V member 1 (Homo sapiens, UniProt Q8NER1)
Test: Ca2+ Influx Functional Assay for the Determination of in Vitro Activity.
Settings: pH 7.4; 22 °C; read-out: EC50 (the source's name)
Experimental: The functional antagonist activity of compounds at the TRPV1 receptor was determined with a Ca2+ influx assay by measuring the effect on capsaicin (0.05 uM) evoked increase in intracellular Ca2+ levels using cells stably expressing recombinant human TRPV1. All compounds were tested over an 11-point half-log concentration range. The fluorescent Ca2+ chelating dye fluo-4 was used as an indicator of the relative levels of Ca2+ in a 96-well format using a fluorescence imaging plate reader. Fluorescence readings were made at 1-5 s intervals over the 240 s course of the experimental run. The peak increase in relative fluorescence units was calculated and expressed as a percentage of the 0.05 uM capsaicin (control) response. Curve fits of the data were solved using a four-parameter logistic Hill equation in GraphPad Prism, and IC50 values were calculated.

Sequence of Transient receptor potential cation channel subfamily V member 1 (Q8NER1 whole entry): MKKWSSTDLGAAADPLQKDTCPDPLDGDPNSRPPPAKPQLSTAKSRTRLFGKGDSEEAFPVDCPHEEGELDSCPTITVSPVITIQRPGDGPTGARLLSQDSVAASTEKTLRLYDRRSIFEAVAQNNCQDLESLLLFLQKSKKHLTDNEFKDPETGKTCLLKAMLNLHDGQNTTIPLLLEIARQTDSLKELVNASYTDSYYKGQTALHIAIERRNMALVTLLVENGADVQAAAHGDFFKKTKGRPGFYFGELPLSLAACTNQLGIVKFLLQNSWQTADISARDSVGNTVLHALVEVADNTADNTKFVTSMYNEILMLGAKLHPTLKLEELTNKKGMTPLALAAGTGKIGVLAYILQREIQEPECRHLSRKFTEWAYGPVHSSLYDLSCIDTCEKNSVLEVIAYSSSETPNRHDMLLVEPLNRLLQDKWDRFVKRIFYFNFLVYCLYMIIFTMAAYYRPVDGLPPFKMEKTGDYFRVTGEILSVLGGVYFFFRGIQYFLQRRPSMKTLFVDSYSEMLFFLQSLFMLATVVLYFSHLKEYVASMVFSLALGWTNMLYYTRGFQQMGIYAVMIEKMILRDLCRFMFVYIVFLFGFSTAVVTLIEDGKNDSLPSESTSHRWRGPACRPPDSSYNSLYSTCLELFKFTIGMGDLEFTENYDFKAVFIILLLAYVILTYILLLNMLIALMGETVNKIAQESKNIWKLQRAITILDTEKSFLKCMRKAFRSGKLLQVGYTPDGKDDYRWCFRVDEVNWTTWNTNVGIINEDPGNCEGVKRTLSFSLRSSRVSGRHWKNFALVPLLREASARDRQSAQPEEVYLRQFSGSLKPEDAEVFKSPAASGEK

SMILES	pIC50
CC(C)(NC(=O)Nc1cccc2cnccc12)c1ccc(C(F)(F)F)cc1 [1-isoquinolin-5-yl-3-{2-[4-(trifluoromethyl)phenyl]propan-2-yl}urea]	7.03
O=C(Nc1cccc2cnccc12)NC(c1ccc(C(F)(F)F)cc1)C1CCCCC1 (configuration not stated) [1-{cyclohexyl[4-(trifluoromethyl)phenyl]methyl}-3-isoquinolin-5-ylurea]	6.54
C[C@@H](NC(=O)Nc1cccc2[nH]ncc12)c1ccc2ccccc2c1 [3-1H-indazol-4-yl-1-[(1R)-1-(naphthalen-2-yl)ethyl]urea]	6.91
C[C@H](NC(=O)Nc1cccc2[nH]ncc12)c1ccc2ccccc2c1 [3-1H-indazol-4-yl-1-[(1S)-1-(naphthalen-2-yl)ethyl]urea]	5.43
C[C@H](NC(=O)Nc1cccc2[nH]ncc12)c1ccc(C(F)(F)F)cc1 [3-1H-indazol-4-yl-1-[(1S)-1-[4-(trifluoromethyl)phenyl]ethyl]urea]	6.61
N#CCC(NC(=O)Nc1cccc2cnccc12)c1ccccc1 (configuration not stated) [3-(2-cyano-1-phenylethyl)-1-isoquinolin-5-ylurea]	4.80
CC(NC(=O)Nc1cccc2cnccc12)c1ccc(C(C)(C)C)cc1C(C)(C)C (configuration not stated) [3-[1-(2,4-di-tert-butylphenyl)ethyl]-1-isoquinolin-5-ylurea]	7.77
CC(NC(=O)Nc1cccc2cnccc12)c1ccc(Br)cc1 (configuration not stated) [3-[1-(4-bromophenyl)ethyl]-1-isoquinolin-5-ylurea]	7.59
CCc1cc(C(C)(C)C)ccc1C(C)NC(=O)Nc1cccc2cnccc12 (configuration not stated) [3-[1-(4-tert-butyl-2-ethylphenyl)ethyl]-1-isoquinolin-5-ylurea]	7.70
Cc1cc(C(C)(C)C)ccc1C(C)NC(=O)Nc1cccc2cnccc12 (configuration not stated) [3-[1-(4-tert-butyl-2-methylphenyl)ethyl]-1-isoquinolin-5-ylurea]	7.34
CC(C)(NC(=O)Nc1cccc2cnccc12)c1ccc(Cl)cc1 [3-[2-(4-chlorophenyl)propan-2-yl]-1-isoquinolin-5-ylurea]	6.84
CN(C)CC(NC(=O)Nc1cccc2cnccc12)c1ccccc1 (configuration not stated) [3-[2-(dimethylamino)-1-phenylethyl]-1-isoquinolin-5-ylurea]	4.51
O=C(Nc1cccc2cnccc12)NC(c1ccccc1)c1ccc(N2CCCCC2)cc1 (configuration not stated) [3-isoquinolin-5-yl-1-{phenyl[4-(piperidin-1-yl)phenyl]methyl}urea]	6.77
O=C(Nc1cccc2cnccc12)NC(c1ccccc1)c1ccc(C(F)(F)F)cc1 (configuration not stated) [3-isoquinolin-5-yl-1-{phenyl[4-(trifluoromethyl)phenyl]methyl}urea]	6.83
O=C(Nc1cccc2cnccc12)NC(c1ccc(C(F)(F)F)cc1)C1CC1 (configuration not stated) [3-{cyclopropyl[4-(trifluoromethyl)phenyl]methyl}-1-isoquinolin-5-ylurea]	6.83

Other lines, results leading:

pIC50	SMILES
7.66	CC(NC(=O)Nc1cccc2cnccc12)c1ccc(C(F)(F)F)cc1 (configuration not stated)
7.33	CC(NC(=O)Nc1cccc2[nH]ncc12)c1ccc(C(F)(F)F)cc1 (racemic) [3-1H-indazol-4-yl-1-{1-[4-(trifluoromethyl)phenyl]ethyl}urea]
6.22	O=C(Nc1cccc2cnccc12)NC(c1ccccc1)c1ccccc1 [1-(diphenylmethyl)-3-isoquinolin-5-ylurea]
6.90	CC(C)(C)c1ccc(C(NC(=O)Nc2cccc3cnccc23)c2ccccc2)cc1 (configuration not stated) [1-[(4-tert-butylphenyl)(phenyl)methyl]-3-isoquinolin-5-ylurea]
5.59	CCC(NC(=O)Nc1cccc2cnccc12)c1ccccc1 (configuration not stated) [1-isoquinolin-5-yl-3-(1-phenylpropyl)urea]
7.14	Cc1ccc([C@@H](C)NC(=O)Nc2cccc3[nH]ncc23)cc1 [3-1H-indazol-4-yl-1-[(1R)-1-(4-methylphenyl)ethyl]urea]
7.39	C[C@@H](NC(=O)Nc1cccc2[nH]ncc12)c1ccc(C(F)(F)F)cc1 [3-1H-indazol-4-yl-1-[(1R)-1-[4-(trifluoromethyl)phenyl]ethyl]urea]
6.13	Cc1ccc([C@H](C)NC(=O)Nc2cccc3[nH]ncc23)cc1 [3-1H-indazol-4-yl-1-[(1S)-1-(4-methylphenyl)ethyl]urea]
7.62	CC(NC(=O)Nc1cccc2cnccc12)c1ccc(C(C)(C)C)cc1 (configuration not stated) [3-[1-(4-tert-butylphenyl)ethyl]-1-isoquinolin-5-ylurea]
7.72	CC(NC(=O)Nc1cccc2cnccc12)c1ccc(C(F)(F)F)c(F)c1 (configuration not stated) [3-{1-[3-fluoro-4-(trifluoromethyl)phenyl]ethyl}-1-isoquinolin-5-ylurea]
6.96	CCC(NC(=O)Nc1cccc2cnccc12)c1ccc(C(F)(F)F)c(F)c1 (configuration not stated) [3-{1-[3-fluoro-4-(trifluoromethyl)phenyl]propyl}-1-isoquinolin-5-ylurea]
6.32	O=C(Nc1cccc2cnccc12)NC(c1ccc(C(F)(F)F)cc1)C1CCCC1 (configuration not stated) [3-{cyclopentyl[4-(trifluoromethyl)phenyl]methyl}-1-isoquinolin-5-ylurea]
